Laboratory results published in patent US20230321105A1, “CELL SIGNAL DETECTION AND MODULATION IN DISEASE” (Washington University, priority 2022, published 2023).

Key:
glioma = settings: STAT3 inhibitor and irradiation vs either treatment alone; glioma preclinical study; cited from earlier work
Serpinb3a = test: Knockdown of Serpinb3a in tumors by qPCR; format: in vivo, mouse; settings: siB3-treated LL2/B3a tumors; average
Description: For xenograft models, female athymic nude mice aged 6-7 weeks old (Charles River) were injected subcutaneously with 5×10^6 Caski/Ctrl or Caski/B3 cells suspended in serum-free IMDM and 50% Matrigel Basement Membrane Matrix (Corning) to a final volume of 100 μl on their flank. For immunocompetent models, female C57/BL6 mice aged 7-8 weeks (Charles River) were injected subcutaneously with 5×10^5 LL2/Ctrl or LL2/B3a cells suspended in 100 μl of PBS into the right flank. To deplete myeloid cells, mice were treated with anti-CD11b antibody (Ultra-LEAF purified anti-mouse CD11b, Biolegend) or isotype IgG2b as control (Ultra-LEAF purified rat IgG2b, Biolegend). […] Tumor volume was measured twice weekly and calculated by (length×width2)/2. […]
Lipofectamine RNAiMAX (Thermo Fisher) was used for STAT1 siRNA (ID: SASI_Hs02_00343387, SASI_Hs01_00098937, Sigma), STAT3 siRNA (ID: SASI_Hs01_00121206, SASI_Hs01_00061860, Sigma), and negative control siRNA (SIC001, Sigma) transfection, according to the manufacturer's instructions. […] Quantitative polymerase chain reaction (qPCR) was performed using PowerUp SYBR green PCR Master Mix (Applied Biosystems) and the Applied Biosystems 7900 Fast real-time PCR system and software. Each sample was performed in triplicate, gene expression levels were normalized to GAPDH, and fold changes were calculated using the ΔΔCt method. […]

LL2/B3a tumors = LL2/B3a tumors treated with Serpinb3a siRNA with or without 10 Gy RT; format: in vivo, C57/BL6 mice
Description: Single-cell suspensions were blocked with either Human TruStain FcX Solution (422301, Biolegend) or mouse TruStain FcX PLUS (anti-mouse CD16/32) Antibody (S17011E, Biolegend) to avoid nonspecific Fc receptor binding and stained with LIVE/DEADFixable Dead Cell Stain Kit (MACS) to exclude dead cells. For surface staining, cells were incubated with the appropriate antibodies for 30 min at 4° C. Intracellular cytokine and nuclear staining was performed after surface staining using Cyto-Fast Fix/Perm Buffer Set and True-Nuclear Transcription Factor Buffer Set, respectively (BioLegend). Data analysis including viSNE and FlowJo plugin FlowSOM were performed on FlowJo v.10 (TreeStar). A range of 20,000 to 60,000 live cells was acquired and individual flow cytometry data from each group were combined into a single data file for generating viSNE. Color-coded subpopulations were gated by pre-defined markers for each immune cell type and overlaid to the viSNE plots for total CD45+ cells from tumors. All flow cytometry gating plots, histograms, and statistics were generated on FlowJo.
For xenograft models, female athymic nude mice aged 6-7 weeks old (Charles River) were injected subcutaneously with 5×10^6 Caski/Ctrl or Caski/B3 cells suspended in serum-free IMDM and 50% Matrigel Basement Membrane Matrix (Corning) to a final volume of 100 μl on their flank. For immunocompetent models, female C57/BL6 mice aged 7-8 weeks (Charles River) were injected subcutaneously with 5×10^5 LL2/Ctrl or LL2/B3a cells suspended in 100 μl of PBS into the right flank. To deplete myeloid cells, mice were treated with anti-CD11b antibody (Ultra-LEAF purified anti-mouse CD11b, Biolegend) or isotype IgG2b as control (Ultra-LEAF purified rat IgG2b, Biolegend). Antibodies were administered through intraperitoneal injection at the initial dose of 300 μg in 150 μl PBS on day 10 post-tumor inoculation, and a subsequent dose of 150 μg in 100 μl PBS every three days. To knock down Serpinb3a, mice received either mSerpinb3a siRNA (5′-ACAUCGAAUUUAACUUCAUtt-3′; 5′-AUGAAGUUAAAUUCGAUGUtt-3′; ID:s73336, Thermo) or control siRNA (Ambion in vivo negative control #1 Thermo) complexed with Invivofectamine 3 (Thermo Fisher) as per manufacturer's protocol. Mice received three intratumoral injections of 10 μg siRNA on days 9, 11, and 13 post-tumor inoculation before radiation treatment performed on day 14. On days 16 and 19, mice received 20 μg siRNA via intraperitoneal injection. For radiation treatment, mice were randomized to receive sham or 10Gy RT using the Xstrahl Small Animal Radiation Research Platform (SARRP) 200 (Xstrahl Life Sciences). Tumor volume was measured twice weekly and calculated by (length×width2)/2. For tissue dissociation, tumors were manually dissected and digested with 1 mg/ml Collagenase, 0.5 mg/ml hyaluronidase, and 10 mg/mL DNase I type IV (Sigma), and transferred to a tissue disaggregator (Medicon, BectonDickinson) using a CTSV (Medimachine II, BectonDickinson) and tissue homogenates were filtered through a 100 μm strainer. Spleens were dissociated by being pressed through a 70 μm filter. Animal work was approved by the Washington University Institute Institutional Animal Care and Use Committee (Protocol #20-0470).
T cells isolated using MojoSort mouse CD3 T cell isolation kit (Biolegend) were labeled with CellTrace violet and activated with CD3/CD28 Dynabeads (Thermo Fisher) for 4 days to evaluate proliferation. To examine TNF and IFNr, T cells were stimulated with 500× Cell Activation Cocktail containing 40.5 μM phorbol-12-myristate 13-acetate (PMA) and 669.3 μM ionomycin (Biolegend) in the presence of 5 μg/mL BFA (Biolegend) for 5 h and stained with surface/intracellular markers for FACS analysis.
Cell culture supernatant was collected at 48 h after fresh media was added to the adherent cells in a monolayer. Cell lysates were prepared using NP-40 buffer (Alfa Aesar). […]

[1] = system: pSTAT3 (Tyr705) and CD11b; test: Immunohistochemistry of mouse tumors treated with Serpinb3a siRNA; format: in vivo
Description: Pretreatment serum SCCA was evaluated by ARUP National Reference Laboratory (Salt Lake City, UT, USA) using ELISA, and tissue microarrays were generated from untreated human tumor specimens. TMA sections were sent to HistoWiz Inc for IHC staining for CD11b (1:100, Abcam ab224800) and IHC for pSTAT3 (1:200, Sigma SAB4300033) was performed by Washington University AMP Core Labs. Mouse tumor sections were stained with pSTAT3 (1:150, Invitrogen PA5-121259) and CD11b (1:500, Invitrogen PA5-79532), using a Pierce peroxidase IHC detection kit (Thermo Fisher). QuPath V0.3.2 software was used for automated analysis using surface and cytoplasmic staining to determine the percent cells positive for CD11b. The staining scores for pSTAT3 were evaluated by the pathologist and calculated by (% of positively stained tumor cells x staining intensity ranged from 0-3). Values from at least two cores from each sample were considered valid and an average score was taken.

Q: For `C[C@H](NC(=O)/C(C#N)=C/c1cccc(Br)n1)c1ccccc1` [WP1066], which survival (glioma) is on record?
A: The survival was “enhanced survival”.

Q: For “siB3: mSerpinb3a siRNA 5′-ACAUCGAAUUUAACUUCAUtt-3′; 5′-AUGAAGUUAAAUUCGAUGUtt-3′; ID:s73336, Thermo, complexed with Invivofectamine 3 (sense ACAUCGAAUUUAACUUCAUTT; antisense AUGAAGUUAAAUUCGAUGUTT; Invivofectamine 3 complex, further chemistry not given here)”, which “decrease of Serpinb3a RNA expression in tumors” value (Serpinb3a) is on record?
A: The value was 65%.

Q: And the “PD-1 in CD8+ T cells” value (LL2/B3a tumors; RT/siB3 vs RT/siNC)?
A: Its value is “lower”.

Q: And the tumor growth inhibition (LL2/B3a tumors; combination of Serpinb3a knockdown with 10 Gy RT (RT/siB3))?
A: Its tumor growth inhibition is “more significant tumor growth inhibition”.

Q: What about the tumor growth (LL2/B3a tumors; sham siB3-treated vs sham siNC-treated tumors) of the same compound?
A: The tumor growth was “Reduced tumor growth”.

Q: And the “CTLA-4 in CD8+ T cells” value (LL2/B3a tumors; sham/RT siB3 vs siNC tumors)?
A: Its value is “lower”.

Q: And the “ratio of CD8/Treg” value (LL2/B3a tumors; sham/RT siB3 vs siNC tumors)?
A: Its value is “higher ratio”.

Q: What about the “CD8+ T cells in tumors” value (LL2/B3a tumors; sham/siB3 tumors) of the same compound?
A: Its value is “increase”.

Q: What about the “M-MDSCs, PMN-MDSCs, and M2 macrophages in tumors” value (LL2/B3a tumors; sham/siB3 vs sham/siNC tumors, flow cytometry) of the same compound?
A: Its value is “significant reduction”.

Q: What about the “expression of CXCL1, and S100A8/A9 in tumor homogenates” value (LL2/B3a tumors; sham/siNC vs. sham/siB3, ELISA) of the same compound?
A: The value was “significant decrease”.

Q: What about the “proliferative capacity of CD8+ T cells upon anti-CD3/28 stimulation” value (LL2/B3a tumors; siB3 tumor-derived vs siNC tumor-derived) of the same compound?
A: The value was “markedly higher proliferative capacity”.

Q: What about the “expression of granzyme B and perforin in CD8+ T cells” value (LL2/B3a tumors; siB3 tumors) of the same compound?
A: The value was “increased expression”.

Q: What about the “expression of granzyme B and perforin in CD8+ T cells” value (LL2/B3a tumors; siB3 tumors with radiation treatment) of the same compound?
A: Its value is “further enhanced”.

Q: And the “pSTAT3 expression (immunostaining of pSTAT3(Tyr705))” value ([1]; LL2/B3a+siB3 tumors)?
A: Its value is “significantly reduced”.

Q: What about the “CD11b+ myeloid cell infiltration” value ([1]; Serpinb3a knockdown tumors) of the same compound?
A: Its value is “reduced”.
